Test results: EP3061750A1, “PYRAZOLE AMIDE COMPOUND CONTAINING DIPHENYL ETHER, AND APPLICATION THEREOF, AND PESTICIDE COMPOSITION” (Central China Normal University, priority 2013, dated 2015)
Where two headings read alike, the source gives them in different places.

What was measured:
[1] = test system: Cucumber powdery mildew (Sphaerotheca uliginea); assay: pot in vivo assay of bactericidal activity, cucumber powdery mildew; details: for pest or weed control at 200 µg/mL: Cucumis sativus, read-out: Efficacy(%) cucumber powery mildew
From the text: (§1) This test is used to determine the bactericidal activity of the compounds prepared in Example 1, Preparation Examples 1 and 2.
(§2) The targets used in the test example are rice sheath blight and cucumber powdery mildew.
(§3) Test Method: According to "Standard Practice for determination of pesticide biological activity (SOP)", pyrazole amide compound containing diphenyl ether was dispensed to 5% emulsifiable concentrates (hereinafter referred to as 5% EC), […] method (pot in vivo assay). The screening results on the two test targets of the compounds prepared in Example 1, Preparation Examples 1 and 2 were shown in Table 4.
Cucumber powdery mildew (Sphaerotheca uliginea)
A cucumber seedling with uniform growth in true leaf stage was chosen, and dried in shade for 24h after spray treatment. Fresh cucumber powdery mildew spores on the cucumber leaves were collected and washed, and filtered through a double gauze to prepare a spore suspension with concentration of about 100,000 / ml, then spray inoculation was applied. The test materials inoculated were moved into artificial climate with relative humidity of 60-70% and temperature of 21-23 °C (indoor lighting), after about 10 days, investigating and grading were carried out according to the incidence of the blank control, and the control effect was calculated according to the disease index.
(§4) Investigation method and grading standard adopted "Guidelines for the field efficacy trials of pesticides", and the control effect was calculated with the disease index. The disease index = Σ(number of diseased leaves at each grade×relative grade value) × 100/(total number of leaves×9); [formula] Control effect (%) = (disease index of control−disease index of treated) × 100/disease index of control. [formula]

[2] = test system: Rice sheath blight (Rhizoctonia solani); assay: pot in vivo assay of bactericidal activity, rice sheath blight; details: for pest or weed control at 200 µg/mL: Rhizoctonia solani, read-out: Efficacy(%) rice sheath blight
From the text: as §1, §2
as §3, with “EC), the” for “EC),”
Rice sheath blight (Rhizoctonia solani)
Two potted rice seedlings with uniform growth in true leaf stage were chosen, and dried by air after spray treatment. The side of bacteria cake with mycelium was closely attached on the leaves, after cultured at 22-26 °C under dark light in a moisture preserving manner for 24h, then cultured with natural light for about 4 days. The diameter of disease spot of each inoculating point was measured by using a caliper after the control material was fully attacked by disease, and the control effect was calculated.
as §4

succinate dehydrogenase = biological target: T1, succinate dehydrogenase (Sus scrofa, UniProt A5GZW8+D0VWV4+Q007T0); assay: inhibitory activity on succinate dehydrogenase (DCIP reduction at 600 nm); assay type: biochemical, pig
T1 construct: succinate dehydrogenase, which was isolated from pig hearts; from tissue; host or cells: pig heart
Protocol: This test was used to determine the inhibitory activity on the succinate dehydrogenase of the compounds prepared in Example 1, Preparation Examples 1 and 2 .
The enzyme used in the test example was succinate dehydrogenase, which was isolated from pig hearts.
Test Method: total volume was 1.8ml, the system comprised 100mM Na2HPO4-NaH2PO4 buffer (pH7.4), 0.3mM EDTA, 20mM sodium succinate, 53µM DCIP (2,6-dichloro indophenol sodium), 2nM succinate dehydrogenase. In water bath with 23 °C of constant temperature and 600rpm magnetic stirring, the reduction of the light absorption of substrate DCIP was monitored at a wavelength of 600nm, the experimental points within the linear range were collected, that is, the experimental points in which the consumption of substrate was controlled not exceeding 5% were collected. The molar extinction coefficient of DCIP was 21mM^-1cm^-1. The reduction amount of DCIP during the reaction time was calculated and linear slope was fitted, and then the initial velocity of the reaction was obtained by deducting the baseline slope.

[3] = concentration 200 mg/L, 5% EC, pot

T1 sequence (Q007T0 29-280): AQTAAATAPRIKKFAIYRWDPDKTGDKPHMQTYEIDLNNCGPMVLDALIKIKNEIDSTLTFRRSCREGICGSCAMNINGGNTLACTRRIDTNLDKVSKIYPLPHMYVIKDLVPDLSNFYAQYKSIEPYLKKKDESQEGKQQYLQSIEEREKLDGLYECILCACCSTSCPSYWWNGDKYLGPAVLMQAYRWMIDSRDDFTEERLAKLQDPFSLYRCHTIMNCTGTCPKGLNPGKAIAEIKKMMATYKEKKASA
T1 sequence (D0VWV4 30-169): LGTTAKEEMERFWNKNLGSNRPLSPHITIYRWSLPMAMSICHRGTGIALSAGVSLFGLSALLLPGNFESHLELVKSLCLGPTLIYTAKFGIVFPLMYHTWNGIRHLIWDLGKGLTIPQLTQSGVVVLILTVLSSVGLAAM
T1 sequence (A5GZW8 57-159 limits assumed): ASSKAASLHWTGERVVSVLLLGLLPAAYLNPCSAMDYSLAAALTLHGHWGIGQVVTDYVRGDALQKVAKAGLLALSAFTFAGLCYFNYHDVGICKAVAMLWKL
T1 sequence (Q0QF01 43-664 partner): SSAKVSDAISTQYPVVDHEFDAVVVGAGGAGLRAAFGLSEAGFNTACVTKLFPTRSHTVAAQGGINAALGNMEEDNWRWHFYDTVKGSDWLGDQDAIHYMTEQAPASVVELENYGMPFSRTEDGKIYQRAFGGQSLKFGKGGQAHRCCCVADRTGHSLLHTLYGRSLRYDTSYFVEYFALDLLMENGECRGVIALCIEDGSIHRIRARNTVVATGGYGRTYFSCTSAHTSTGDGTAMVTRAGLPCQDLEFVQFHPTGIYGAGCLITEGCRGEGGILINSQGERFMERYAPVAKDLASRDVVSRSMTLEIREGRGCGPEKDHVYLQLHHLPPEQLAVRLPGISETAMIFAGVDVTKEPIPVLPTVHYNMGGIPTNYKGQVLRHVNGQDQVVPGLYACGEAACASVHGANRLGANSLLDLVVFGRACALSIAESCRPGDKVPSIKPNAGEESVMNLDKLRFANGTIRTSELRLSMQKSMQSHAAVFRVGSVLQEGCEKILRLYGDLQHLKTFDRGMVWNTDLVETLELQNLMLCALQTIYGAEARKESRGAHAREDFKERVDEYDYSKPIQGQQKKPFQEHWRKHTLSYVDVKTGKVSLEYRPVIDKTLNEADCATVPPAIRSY

Cn1cc(C(=O)Nc2ccccc2Oc2ccccc2)c(C(F)(F)F)n1 [Comparative compound 12, reference compound]
pest or weed control at 200 µg/mL [1]: 0%
pest or weed control at 200 µg/mL [2]: 30.9%
IC50 (succinate dehydrogenase): 19.8 ± 1.07 µM
inhibition at 1 µM (succinate dehydrogenase; read-out: inhibition ratio(%)): 0%
inhibition at 5 µM (succinate dehydrogenase; read-out: inhibition ratio(%)): 10%
inhibition at 10 µM (succinate dehydrogenase; read-out: inhibition ratio(%)): 22.3%
inhibition at 20 µM (succinate dehydrogenase; read-out: inhibition ratio(%)): 38%
inhibition at 30 µM (succinate dehydrogenase; read-out: inhibition ratio(%)): 50.3%
inhibition at 50 µM (succinate dehydrogenase; read-out: inhibition ratio(%)): 61.8%

Cn1cc(C(=O)Nc2ccccc2Oc2ccc(C(C)(C)C)cc2)c(C(F)F)n1 [Comparative compound 21, reference compound]
pest or weed control at 200 µg/mL [1]: 0%
pest or weed control at 200 µg/mL [2]: 22.3%
IC50 (succinate dehydrogenase): 1.18 ± 0.0137 µM
inhibition at 0.1 µM (succinate dehydrogenase; read-out: inhibition ratio(%)): 0%
inhibition at 0.2 µM (succinate dehydrogenase; read-out: inhibition ratio(%)): 24.7%
inhibition at 0.3 µM (succinate dehydrogenase; read-out: inhibition ratio(%)): 27.4%
inhibition at 0.5 µM (succinate dehydrogenase; read-out: inhibition ratio(%)): 34.6%
inhibition at 1 µM (succinate dehydrogenase; read-out: inhibition ratio(%)): 46.9%
inhibition at 3 µM (succinate dehydrogenase; read-out: inhibition ratio(%)): 60.7%
inhibition at 10 µM (succinate dehydrogenase; read-out: inhibition ratio(%)): 79.4%
inhibition at 50 µM (succinate dehydrogenase; read-out: inhibition ratio(%)): 80.8%

Cn1cc(C(=O)Nc2ccccc2Oc2ccc(C(F)(F)F)cc2Cl)c(C(F)F)n1 [Compound II]
pest or weed control at 200 µg/mL [1, 3]: 100%
efficacy on cucumber powery mildew(%) ([1]; concentration 6.25 mg/L): 0%
efficacy on cucumber powery mildew(%) ([1]; concentration 12.5 mg/L): 66.67%
efficacy on cucumber powery mildew(%) ([1]; concentration 25 mg/L): 94.44%
efficacy on cucumber powery mildew(%) ([1]; concentration 50 mg/L): 100%
efficacy on cucumber powery mildew(%) ([1]; concentration 100 mg/L): 100%
pest or weed control at 200 µg/mL [2, 3]: 100%
efficacy on rice sheath bilght(%) ([2]; concentration 0.75 mg/L): 43.75%
efficacy on rice sheath bilght(%) ([2]; concentration 1.5 mg/L): 55.34%
efficacy on rice sheath bilght(%) ([2]; concentration 3.125 mg/L): 68.68%
efficacy on rice sheath bilght(%) ([2]; concentration 6.25 mg/L): 70.43%
efficacy on rice sheath bilght(%) ([2]; concentration 12.5 mg/L): 94.62%
efficacy on rice sheath bilght(%) ([2]; concentration 25 mg/L): 98.66%
efficacy on rice sheath bilght(%) ([2]; concentration 50 mg/L): 100%
efficacy on rice sheath bilght(%) ([2]; concentration 100 mg/L): 100%
IC50 (succinate dehydrogenase): 0.0484 ± 0.00171 µM
inhibition at 0.01 µM (succinate dehydrogenase; concentration 0.01 µM, read-out: inhibition ratio(%)): 11.7%
inhibition at 0.02 µM (succinate dehydrogenase; concentration 0.02 µM, read-out: inhibition ratio(%)): 20.8%
inhibition at 0.03 µM (succinate dehydrogenase; concentration 0.03 µM, read-out: inhibition ratio(%)): 31.8%
inhibition at 0.05 µM (succinate dehydrogenase; concentration 0.05 µM, read-out: inhibition ratio(%)): 47.1%
inhibition at 0.1 µM (succinate dehydrogenase; concentration 0.1 µM, read-out: inhibition ratio(%)): 60.7%
inhibition at 0.2 µM (succinate dehydrogenase; concentration 0.2 µM, read-out: inhibition ratio(%)): 75.3%
inhibition at 0.5 µM (succinate dehydrogenase; concentration 0.5 µM, read-out: inhibition ratio(%)): 83.8%
inhibition at 1 µM (succinate dehydrogenase; concentration 1 µM, read-out: inhibition ratio(%)): 91.4%
inhibition at 10 µM (succinate dehydrogenase; concentration 10 µM, read-out: inhibition ratio(%)): 97.9%
inhibition at 50 µM (succinate dehydrogenase; concentration 50 µM, read-out: inhibition ratio(%)): 100%

Cn1cc(C(=O)Nc2ccccc2Oc2ccc(Cl)cc2Cl)c(C(F)F)n1 [Compound I]
pest or weed control at 200 µg/mL [1]: 100%
efficacy on cucumber powery mildew(%) ([1]; concentration 100 mg/L): 0%
pest or weed control at 200 µg/mL [2]: 100%
efficacy on rice sheath bilght(%) ([2]; concentration 1 mg/L): 20.74%
efficacy on rice sheath bilght(%) ([2]; concentration 1.5 mg/L): 45.38%
efficacy on rice sheath bilght(%) ([2]; concentration 3.125 mg/L): 65.37%
efficacy on rice sheath bilght(%) ([2]; concentration 6.25 mg/L): 68.77%
efficacy on rice sheath bilght(%) ([2]; concentration 12.5 mg/L): 81.72%
efficacy on rice sheath bilght(%) ([2]; concentration 25 mg/L): 95%
efficacy on rice sheath bilght(%) ([2]; concentration 50 mg/L): 98%
efficacy on rice sheath bilght(%) ([2]; concentration 100 mg/L): 100%
IC50 (succinate dehydrogenase): 0.401 ± 0.0103 µM
inhibition at 0.03 µM (succinate dehydrogenase; read-out: inhibition ratio(%)): 18.3%
inhibition at 0.05 µM (succinate dehydrogenase; read-out: inhibition ratio(%)): 21.6%
inhibition at 0.1 µM (succinate dehydrogenase; read-out: inhibition ratio(%)): 27%
inhibition at 0.2 µM (succinate dehydrogenase; read-out: inhibition ratio(%)): 37.4%
inhibition at 0.3 µM (succinate dehydrogenase; read-out: inhibition ratio(%)): 42.1%
inhibition at 0.5 µM (succinate dehydrogenase; read-out: inhibition ratio(%)): 52.3%
inhibition at 1 µM (succinate dehydrogenase; read-out: inhibition ratio(%)): 66.9%
inhibition at 10 µM (succinate dehydrogenase; read-out: inhibition ratio(%)): 74.4%
inhibition at 50 µM (succinate dehydrogenase; read-out: inhibition ratio(%)): 73%

Cn1cc(C(=O)Nc2ccccc2Oc2cccc(Cl)c2)c(C(F)(F)F)n1 [III-1]
pest or weed control at 200 µg/mL [1]: 22.2%
pest or weed control at 200 µg/mL [2]: 68.6%
IC50 (succinate dehydrogenase): 36.9 ± 1.47 µM

Cn1cc(C(=O)Nc2ccccc2Oc2ccc(Cl)cc2Cl)c(C(F)(F)F)n1 [III-2]
pest or weed control at 200 µg/mL [1]: 72.2%
pest or weed control at 200 µg/mL [2]: 0%
IC50 (succinate dehydrogenase): 2.7 ± 1.37 µM

Cn1cc(C(=O)Nc2ccccc2Oc2ccc(F)cc2)c(C(F)(F)F)n1 [III-3]
pest or weed control at 200 µg/mL [1]: 0%
pest or weed control at 200 µg/mL [2]: 57%
IC50 (succinate dehydrogenase): > 100 µM

COc1cc(Oc2ccccc2NC(=O)c2cn(C)nc2C(F)(F)F)cc(OC)c1OC [III-4]
pest or weed control at 200 µg/mL [1]: 0%
pest or weed control at 200 µg/mL [2]: 0%
IC50 (succinate dehydrogenase): > 100 µM

COc1cc(Oc2ccccc2NC(=O)c2cn(C)nc2C(F)F)cc(OC)c1OC [III-5]
pest or weed control at 200 µg/mL [1]: 0%
pest or weed control at 200 µg/mL [2]: 0%
IC50 (succinate dehydrogenase): > 100 µM

Cn1cc(C(=O)Nc2ccccc2Oc2ccc(C#N)cc2)c(C(F)(F)F)n1 [III-6]
pest or weed control at 200 µg/mL [1]: 0%
pest or weed control at 200 µg/mL [2]: 30.2%
IC50 (succinate dehydrogenase; cells printed as "-" (footnote)): > 100 µM
